Series [1] is described as follows: In vitro microsomal clearance, human. The format is in vitro ADME.
The nature of series [2]: In vitro microsomal clearance, dog. The format is in vitro ADME. The settings on record: Dog (Beagle).
Series [3] can be described thus: In vitro microsomal clearance, rat. The format is in vitro ADME.
The subject of series [4] is ICRAC current. Briefly: ICRAC assay: thapsigargin-induced calcium influx in Jurkat E6-1 cells (Fluo-4, FLIPR). The format is cell-based. As to conditions: Homo sapiens, thapsigargin 5 μM, calcium add-back, inhibition of maximal fluorescence signal. On the procedure: This ICRAC assay uses the SERCA inhibitor thapsigargin to produce calcium depletion and activate an ICRAC current. […] Changes in intracellular calcium levels are determined by the inclusion of the calcium sensitive fluorescent dye Fluo-4 and the use of the FLIPR detection system. Inhibitors of ICRAC would be expected to decrease the calcium influx upon calcium add-back, thus reducing fluorescent signal.
Jurkat E6-1 is an established immortalised T lymphocyte cell line previously shown to express a functional ICRAC current. Jurkat cells grow in suspension, are cultured in DMEM+10% FBS, maintained in T175 flasks at 37° C./5% CO2, and are subcultured twice a week with either 1:10-1:20 splits. 1 confluent T175 yields 100 ml of approximately 2×10^6 cells/ml.
Loading buffer contains; NaCl 145 mM, KCl 2.5 mM, HEPES 10 mM, Glucose 10 mM, MgCl2 1.2 mM, made up with water, then pH adjusted to 7.4 using NaOH 1 M. Finally Fluo-4AM & brilliant black are added to give a final assay concentration of 2 μM and 250 μM respectively. […]
The required seeding density for a 384 plate is 20,000 cells per well. […] Plates are then transferred to the FLIPR which initially measures baseline fluorescence, followed by any increase in fluorescence evoked by the online addition of a 6 mM (1.2 mM FAC) calcium solution. […]

This note sets out measurements from patent US9156791B2, “Pyrazole compounds acting against allergic, immune and inflammatory conditions” (Glaxo Group Limited, priority 2010, dated 2015).

For orientation: IC50 means the point on the concentration scale where inhibition reaches its midpoint.

For `[2H]C([2H])(c1c(F)cccc1C(F)(F)F)n1cc(NC(=O)c2c(F)cccc2F)cn1` [Example 3, 2,6-Difluoro-N-(1-(2-fluoro-6-(trifluoromethyl)-d2-benzyl)-1H-pyrazol-4-yl)benzamide], the CIint in series [1] is listed as less than 0.5 mL/min g liver; in series [2], 0.80 mL/min g liver; in series [3] (Rat (CD)), 0.95 mL/min g liver; in series [3] (Rat (Wistar Han)), 1.16 mL/min g liver.
With `O=C(Nc1cnn(Cc2c(F)cccc2C(F)(F)F)c1)c1c(F)cccc1F` [Example 1, 2,6-Difluoro-N-(1-{[2-fluoro-6-(trifluoromethyl)phenyl]methyl}-1H-pyrazol-4-yl)benzamide], the CIint in series [1] is on record as 0.80 mL/min g liver; in series [2], 0.98 mL/min g liver; in series [3] (Rat (CD)), 1.67 mL/min g liver; in series [3] (Rat (Wistar Han)), 2.05 mL/min g liver. In addition, the IC50 in series [4] is 3.16 µM.
